# Species on record: Rattus norvegicus
# Assay: DrugMatrix - Regimen: Daily Repeat
# Assay type: toxicity, organism-based, Sprague-Dawley
# Set-up: regimen Daily Repeat, gender Male, age 6-8 weeks
# Details: in vivo, po, route oral GAVAGE, vehicle 100 % WATER; for ABSOLUTE BASOPHIL / ABSOLUTE EOSINOPHIL / ABSOLUTE LYMPHOCYTE / ABSOLUTE MONOCYTE / ABSOLUTE SEGMENTED NEUTROPHIL / BASOPHIL / EOSINOPHIL / ERYTHROCYTE COUNT / HEMATOCRIT / HEMOGLOBIN / LEUKOCYTE COUNT / LYMPHOCYTE / MEAN CORPUSCULAR HEMOGLOBIN / MEAN CORPUSCULAR HEMOGLOBIN CONCENTRATION / MEAN CORPUSCULAR VOLUME / MONOCYTE / NEUTROPHIL / NUCLEATED RED BLOOD CELLS / PLATELET COUNT: tissue Blood; for ALANINE AMINOTRANSFERASE / ALBUMIN / ALKALINE PHOSPHATASE / ASPARTATE AMINOTRANSFERASE / BLOOD UREA NITROGEN / CARBON DIOXIDE / CHLORIDE / CHOLESTEROL / CREATINE PHOSPHOKINASE / CREATININE / GLUCOSE / LACTATE DEHYDROGENASE / LIPASE / PHOSPHORUS / POTASSIUM / SODIUM / TOTAL BILIRUBIN / TOTAL PROTEIN / URIC ACID: tissue Plasma
# [1] = 58 mg/kg, 120 h, dose level Low, time 5 day
# [2] = 220 mg/kg, 72 h, dose level High, time 3 day
# [3] = 220 mg/kg, 120 h, dose level High, time 5 day
smiles,measurement,setting,value
NC12CC3CC(CC(C3)C1)C2 [AMANTADINE],ABSOLUTE BASOPHIL,[1],0 CELLS/uL
same,ABSOLUTE EOSINOPHIL,[1],0 CELLS/uL
same,ABSOLUTE LYMPHOCYTE,[1],10747.67 CELLS/uL
same,ABSOLUTE MONOCYTE,[1],83.67 CELLS/uL
same,ABSOLUTE SEGMENTED NEUTROPHIL,[1],1002 CELLS/uL
same,BASOPHIL,[1],0%
same,EOSINOPHIL,[1],0%
same,ERYTHROCYTE COUNT,[1],6.06 x10E6/uL
same,HEMATOCRIT,[1],37.8%
same,HEMOGLOBIN,[1],14.9 G/DL
same,LEUKOCYTE COUNT,[1],11.83 x10E3/uL
same,LYMPHOCYTE,[1],89%
same,MEAN CORPUSCULAR HEMOGLOBIN,[1],24.63 pg
same,MEAN CORPUSCULAR HEMOGLOBIN CONCENTRATION,[1],39.43 G/DL
same,MEAN CORPUSCULAR VOLUME,[1],62.5 fL
same,MONOCYTE,[1],1%
same,NEUTROPHIL,[1],10%
same,NUCLEATED RED BLOOD CELLS,[1],0 /100WBC
same,PLATELET COUNT,[1],1200.33 x10E3/uL
same,ALANINE AMINOTRANSFERASE,[1],44 u/L
same,ALBUMIN,[1],4.27 G/DL
same,ALKALINE PHOSPHATASE,[1],432.67 u/L
same,ASPARTATE AMINOTRANSFERASE,[1],73.33 u/L
same,BLOOD UREA NITROGEN,[1],16 mg/dL
same,CARBON DIOXIDE,[1],31 mmol/L
same,CHLORIDE,[1],100.33 MEQ/L
same,CHOLESTEROL,[1],73.33 mg/dL
same,CREATINE PHOSPHOKINASE,[1],431.33 u/L
same,CREATININE,[1],0.18 mg/dL
same,GLUCOSE,[1],147 mg/dL
same,LACTATE DEHYDROGENASE,[1],336 u/L
same,LIPASE,[1],11.33 u/L
same,PHOSPHORUS,[1],12.13 mg/dL
same,POTASSIUM,[1],6.25 MEQ/L
same,SODIUM,[1],142.77 MEQ/L
same,TOTAL BILIRUBIN,[1],0.23 mg/dL
same,TOTAL PROTEIN,[1],6.27 G/DL
same,URIC ACID,[1],1.43 mg/dL
same,ABSOLUTE BASOPHIL,[2],0 CELLS/uL
same,ABSOLUTE EOSINOPHIL,[2],0 CELLS/uL
same,ABSOLUTE LYMPHOCYTE,[2],17634 CELLS/uL
same,ABSOLUTE MONOCYTE,[2],192.33 CELLS/uL
same,ABSOLUTE SEGMENTED NEUTROPHIL,[2],940.33 CELLS/uL
same,BASOPHIL,[2],0%
same,EOSINOPHIL,[2],0%
same,ERYTHROCYTE COUNT,[2],5.62 x10E6/uL
same,HEMATOCRIT,[2],36.3%
same,HEMOGLOBIN,[2],14.43 G/DL
same,LEUKOCYTE COUNT,[2],18.77 x10E3/uL
same,LYMPHOCYTE,[2],94%
same,MEAN CORPUSCULAR HEMOGLOBIN,[2],25.7 pg
same,MEAN CORPUSCULAR HEMOGLOBIN CONCENTRATION,[2],39.77 G/DL
same,MEAN CORPUSCULAR VOLUME,[2],64.63 fL
same,MONOCYTE,[2],1%
same,NEUTROPHIL,[2],5%
same,NUCLEATED RED BLOOD CELLS,[2],0 /100WBC
same,PLATELET COUNT,[2],1304.33 x10E3/uL
same,ALANINE AMINOTRANSFERASE,[2],42.33 u/L
same,ALBUMIN,[2],4.23 G/DL
same,ALKALINE PHOSPHATASE,[2],440 u/L
same,ASPARTATE AMINOTRANSFERASE,[2],69 u/L
same,BLOOD UREA NITROGEN,[2],13.67 mg/dL
same,CARBON DIOXIDE,[2],32 mmol/L
same,CHLORIDE,[2],101 MEQ/L
same,CHOLESTEROL,[2],61 mg/dL
same,CREATINE PHOSPHOKINASE,[2],227.67 u/L
same,CREATININE,[2],0.16 mg/dL
same,GLUCOSE,[2],149 mg/dL
same,LACTATE DEHYDROGENASE,[2],138.67 u/L
same,LIPASE,[2],10.67 u/L
same,PHOSPHORUS,[2],11.67 mg/dL
same,POTASSIUM,[2],6.52 MEQ/L
same,SODIUM,[2],143.17 MEQ/L
same,TOTAL BILIRUBIN,[2],0.17 mg/dL
same,TOTAL PROTEIN,[2],5.93 G/DL
same,URIC ACID,[2],1.7 mg/dL
same,ABSOLUTE BASOPHIL,[3],0 CELLS/uL
same,ABSOLUTE EOSINOPHIL,[3],49 CELLS/uL
same,ABSOLUTE LYMPHOCYTE,[3],15618.33 CELLS/uL
same,ABSOLUTE MONOCYTE,[3],94.33 CELLS/uL
same,ABSOLUTE SEGMENTED NEUTROPHIL,[3],971.67 CELLS/uL
same,BASOPHIL,[3],0%
same,EOSINOPHIL,[3],0.33%
same,ERYTHROCYTE COUNT,[3],5.95 x10E6/uL
same,HEMATOCRIT,[3],37.33%
same,HEMOGLOBIN,[3],14.67 G/DL
same,LEUKOCYTE COUNT,[3],16.73 x10E3/uL
same,LYMPHOCYTE,[3],93.33%
same,MEAN CORPUSCULAR HEMOGLOBIN,[3],24.73 pg
same,MEAN CORPUSCULAR HEMOGLOBIN CONCENTRATION,[3],39.3 G/DL
same,MEAN CORPUSCULAR VOLUME,[3],62.9 fL
same,MONOCYTE,[3],0.67%
same,NEUTROPHIL,[3],5.67%
same,NUCLEATED RED BLOOD CELLS,[3],0 /100WBC
same,PLATELET COUNT,[3],1216.33 x10E3/uL
same,ALANINE AMINOTRANSFERASE,[3],55.33 u/L
same,ALBUMIN,[3],4.13 G/DL
same,ALKALINE PHOSPHATASE,[3],501 u/L
same,ASPARTATE AMINOTRANSFERASE,[3],86.67 u/L
same,BLOOD UREA NITROGEN,[3],14 mg/dL
same,CARBON DIOXIDE,[3],31 mmol/L
same,CHLORIDE,[3],100.67 MEQ/L
same,CHOLESTEROL,[3],67.33 mg/dL
same,CREATINE PHOSPHOKINASE,[3],446.67 u/L
same,CREATININE,[3],0.17 mg/dL
same,GLUCOSE,[3],165.67 mg/dL
same,LACTATE DEHYDROGENASE,[3],167.33 u/L
same,LIPASE,[3],11 u/L
same,PHOSPHORUS,[3],11.4 mg/dL
same,POTASSIUM,[3],6.52 MEQ/L
same,SODIUM,[3],143.23 MEQ/L
same,TOTAL BILIRUBIN,[3],0.23 mg/dL
same,TOTAL PROTEIN,[3],6.3 G/DL
same,URIC ACID,[3],1.77 mg/dL
